From patent US8324250B2 (Hoffmann-La Roche Inc., priority 2009, dated 2012)

Columns and labels:
[1] = phase II trial, cited from earlier work
[2] = target: T1, recombinant human NK3 receptor (Homo sapiens, UniProt P29371); assay: [3H]SR142801 competition binding assay; details: membranes from HEK293 cells transiently expressing recombinant human NK3 receptor; [3H]SR142801 radioligand; 75 min at RT; Ki by Cheng-Prussoff; read-out: Data Ki (hNK-3 receptor affinity)
T1 construct: expressed in transfected cells; host or cells: HEK293 cells (transient expression), membranes
T1 sequence (P29371 1-465): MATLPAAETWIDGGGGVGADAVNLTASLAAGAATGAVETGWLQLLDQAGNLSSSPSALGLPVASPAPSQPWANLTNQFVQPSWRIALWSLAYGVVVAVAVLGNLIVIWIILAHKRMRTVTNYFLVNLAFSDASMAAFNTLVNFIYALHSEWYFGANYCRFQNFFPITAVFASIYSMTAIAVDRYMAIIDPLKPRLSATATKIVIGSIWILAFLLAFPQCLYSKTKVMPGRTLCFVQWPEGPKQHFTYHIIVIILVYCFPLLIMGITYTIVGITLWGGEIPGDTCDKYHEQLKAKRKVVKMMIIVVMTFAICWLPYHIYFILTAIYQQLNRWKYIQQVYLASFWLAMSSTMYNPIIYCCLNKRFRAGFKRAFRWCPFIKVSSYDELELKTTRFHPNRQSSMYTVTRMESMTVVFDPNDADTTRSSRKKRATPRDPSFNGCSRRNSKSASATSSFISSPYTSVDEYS
Procedure, shortened: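 Membranes from HEK293 cells transiently expressing the receptor, 5 μg protein/well, in 50 mM Tris-HCl pH 7.4 with 4 mM MnCl2, 1 μM phosphoramidon, 0.1% BSA; nonspecific binding defined with 10 μM SB222200. Filtration and scintillation counting; IC50 from Hill fit, Ki by Cheng-Prussoff using saturation-derived KD, duplicates.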

SMILES | activity in the treatment of negative symptoms of schizophrenia ([1]; negative symptoms (depression, anhedonia, social isolation, memory and attention deficits)) | activity on positive symptoms of schizophrenia ([1]; positive symptoms (altered behaviour, delusion, hallucinations, extreme emotions, excited motor activity, incoherent speech)) | Ki [2] [nM]
CC(=O)N(C)C1(c2ccccc2)CCN(CCC[C@]2(c3ccc(Cl)c(Cl)c3)CCCN(C(=O)c3ccccc3)C2)CC1 [SR 142,801, Osanetant] | inactive | active | 
C[C@H](NC(=O)C1(c2ccccc2)CCN(C(=O)C2CCN(c3ccc(C#N)cn3)CC2)CC1)c1ccccc1 [Example 61, 1-(5′-Cyano-3,4,5,6-tetrahydro-2H-[1,2′]bipyrid-inyl-4-carbonyl)-4-phenyl-piperidine-4-carboxylic acid ((S)-1-phenyl-ethyl)-amide] |  |  | 37.9
Cc1noc(-c2ccc(C(=O)N3CCC(C(=O)NC(C)(C)c4ccccc4)(c4ccccc4)CC3)cc2)n1 [Example 116, 1-[4-(3-Methyl-[1,2,4]oxadiazol-5-yl)-benzoyl]-4-phenyl-piperidine-4-carboxylic acid (1-methyl-1-phenyl-ethyl)-amide] |  |  | 22.6
C[C@H](NC(=O)C1(c2ccc(F)cc2)CCN(C(=O)c2ccc(-c3ccc(F)cc3)cc2)CC1)c1ccc(F)cc1 [Example 89, 1-(4′-Fluoro-biphenyl-4-carbonyl)-4-(4-fluoro-piperidine-phenyl)-4-carboxylic acid [(S)-1-(4-fluoro-phenyl)-ethyl]-amide] |  |  | 18.3
O=C(c1ccc(-c2ccc(F)cc2)cc1)N1CCC(C(=O)NCc2ccc(F)cc2)(c2ccc(F)cc2)CC1 [Example 136, 1-(4′-Fluoro-biphenyl-4-carbonyl)-4-(4-fluoro-phenyl)-piperidine-4-carboxylic acid 4-fluoro-benzylamide] |  |  | 54.9
C[C@H](NC(=O)C1(c2ccccc2)CCN(C(=O)c2ccc(-c3ccc(C(F)(F)F)cn3)cc2)CC1)c1ccccc1 [Example 45, 4-Phenyl-1-[4-(5-trifluorome-thyl-pyridin-2-yl)benzoyl]-piperidine-4-carboxylic acid ((S)-1-phenyl-ethyl)-amide] |  |  | 26.7
O=C(c1ccc(-c2ccc(F)cc2)cc1)N1CCC(C(=O)NC(c2ccccc2)C(F)(F)F)(c2ccc(F)cc2)CC1 (stereo not shown) [Example 145, 1-(4′-Fluoro-biphenyl-4-carbonyl)-4-(4-fluoro-phenyl)-piperidine-4-carboxylic acid (2,2,2-trifluoro-1-phenyl-ethyl)-amide] |  |  | 36.4
Cc1nc(-c2ccc(C(=O)N3CCC(C(=O)NC4(c5ccc(F)cc5)CC4)(c4ccc(F)cc4)CC3)cc2)no1 [Example 163, 4-(4-Fluoro-phenyl)-1-[4-(5-methyl-[1,2,4]oxadiazol-3-yl)-benzoyl]-piperidine-4-carboxylic acid [1-(4-fluoro-phenyl)-cyclopropyl]-amide] |  |  | 41
Cc1noc(-c2ccc(C(=O)N3CCC(C(=O)N[C@@H](C)c4ccc(C(F)(F)F)cc4)(c4ccccc4)CC3)cc2)n1 [Example 114, 1-[4-(3-Methyl-[1,2,4]oxadiazol-5-yl)-benzoyl]-4-phenyl-piperidine-4-carboxylic acid [(S)-1-(4-trifluoromethyl-phenyl)-ethyl]-amide] |  |  | 90.5
C[C@H](NC(=O)C1(c2ccccc2)CCN(C(=O)c2ccc(N3CCS(=O)(=O)CC3)cc2)CC1)C1CCCCC1 [Example 80, 1-[4-(1,1 - Dioxo-1λ6-thiomorpholin-4-yl)-benzoyl]-4-phenyl-piperidine-4-carboxylic acid ((S)-1-cyclohexyl-ethyl)-amide] |  |  | 4.1
C[C@H](NC(=O)C1(c2ccccc2)CCN(C(=O)N2CCN(c3cc(C#N)ccn3)CC2)CC1)c1ccccc1 [Example 225, 1-[4-(4-Cyano-pyridin-2-yl)-piperazine-1-carbonyl]-4-phenyl-piperidine-4-carboxylic acid ((S)-1-phenyl-ethyl)-amide] |  |  | 50.6
C[C@H](NC(=O)C1(c2ccccc2)CCN(C(=O)c2ccc(-c3ncccn3)cc2)CC1)c1ccccc1 [Example 47, 4-Phenyl-1-(4-pyrimidin-2-yl-benzoyl)-piperidine-4-carboxylic acid ((S)-1-phenyl-ethyl)-amide] |  |  | 24.7
C[C@H](NC(=O)C1(c2ccccc2)CCN(C(=O)c2ccc(N3CCCCC3=O)cc2)CC1)c1ccccc1 [Example 63] |  |  | 44.9
C[C@H](NC(=O)C1(c2ccccc2)CCN(C(=O)c2ccc(-c3ccc(F)cc3)cc2)CC1)c1ccccc1 [Example 54, 1-(4′-Fluoro-biphenyl-4-carbonyl)-4-phenyl-piperidine-4-carboxylic acid ((S)-1-phenyl-ethyl)-amide] |  |  | 7.2
O=C(c1ccc(-c2ccc(F)cc2)cc1)N1CCC(C(=O)NCC2CCCCC2)(c2ccc(F)cc2)CC1 [Example 142, 1-(4′-Fluoro-biphenyl-4-carbonyl)-4-(4-fluoro-phenyl)-piperidine-4-carboxylic acid cyclohexylmethyl-amide] |  |  | 38.2
C[C@H](NC(=O)C1(c2ccccc2)CCN(C(=O)c2ccc(-n3cncn3)cc2)CC1)c1ccccc1 [Example 34, 4-Phenyl-1-(4-[1,2,4]triazo 1-1-yl-benzoyl)-piperidine-4-carboxylic acid ((S)-1-phenyl-ethyl)-amide] |  |  | 98.5
Cc1nc(-c2ccc(C(=O)N3CCC(C(=O)N[C@H](c4cccc(F)c4)C4CC4)(c4ccc(F)cc4)CC3)cc2)no1 [Example 197, 4-(4-Fluoro-phenyl)-1-[4-(5-methyl-[1,2,4]oxadiazol-3-yl)-benzoyl]-piperidine-4-carboxylic acid [(S)-cyclopropyl-(3-fluoro-phenyl)-methyl]-amide] |  |  | 7.1
Cc1nnc(C)n1C1CCN(C(=O)N2CCC(C(=O)N[C@@H](C)c3ccccc3)(c3ccccc3)CC2)CC1 [Example 220, 1-[4-(3,5-Dimethyl-[1,2,4]triazol-4-yl)-piperidine-1-carbonyl]-4-phenyl-piperidine-4-carboxylic acid ((S)-1-phenyl-ethyl)-amide] |  |  | 63.9
